The target in assay [1] is Dihydroorotate dehydrogenase (quinone), mitochondrial (Homo sapiens, UniProt Q02127). In words: Inhibition of human DHODH using dihydroorotate as substrate and Q6 as coenzyme by DCIP dye based spectrophotometry analysis.
For another assay, the system named is MOLM-13. As to the kind of experiment: Antiproliferative activity against human MOLM-13 cells incubated for 72 hrs by CellTiter-Glo based multilabel reader analysis. The class given is functional, cell-based. Particulars: MOLM-13, 72 h.

Sequence of Dihydroorotate dehydrogenase (quinone), mitochondrial (Q02127 whole entry): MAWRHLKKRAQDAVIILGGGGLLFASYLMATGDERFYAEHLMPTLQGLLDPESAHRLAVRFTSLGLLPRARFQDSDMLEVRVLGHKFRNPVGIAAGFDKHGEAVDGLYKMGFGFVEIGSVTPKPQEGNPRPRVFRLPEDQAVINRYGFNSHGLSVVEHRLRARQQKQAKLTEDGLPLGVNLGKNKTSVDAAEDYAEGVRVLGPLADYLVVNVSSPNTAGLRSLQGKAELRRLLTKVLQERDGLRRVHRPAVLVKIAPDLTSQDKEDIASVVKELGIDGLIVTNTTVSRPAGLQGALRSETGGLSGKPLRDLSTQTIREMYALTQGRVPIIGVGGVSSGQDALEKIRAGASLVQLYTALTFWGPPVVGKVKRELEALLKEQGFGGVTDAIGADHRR

In the case of `CCn1c(CO)nn(-c2cc(O[C@@H](C)C(F)(F)F)c3c(Nc4c(C)ccnc4Cl)nn(C)c3c2F)c1=O`, the IC50 (usually the concentration that gives 50% inhibition) in assay [1] turned out to be 2 nM; in the assay on MOLM-13, 5.7 nM.

Turning to `CCn1c(CO)nn(-c2cc(OC(C)C(F)(F)F)c3c(Nc4c(F)cccc4Cl)nn(C)c3c2F)c1=O` (configuration not stated), the IC50 stood at 3 nM in assay [1] and 1.2 nM in the assay with MOLM-13.

As for `CCn1c(CO)nn(-c2cc(OC(C)C(F)(F)F)c3c(Nc4c(F)cccc4Cl)nn(C)c3c2)c1=O` (configuration not stated), the IC50 in assay [1] turned out to be 8 nM; in the assay on MOLM-13 it was 3 nM.

Take `CCn1c(CO)nn(-c2cc(O[C@@H](C)C(F)(F)F)c3c(Nc4c(F)cccc4Cl)noc3c2F)c1=O`: the 50% inhibitory concentration (IC50) was 2 nM in assay [1] and 0.7 nM with MOLM-13.

Regarding `Cc1ccnc(Cl)c1Nc1nn(C)c2c(F)c(-c3cn(C)c(C(C)(C)O)n3)cc(O[C@@H](C)C(F)(F)F)c12`, the IC50 was 1 nM in assay [1] and 0.1 nM in the assay with MOLM-13.

Take `CCn1c(CO)nn(-c2cc(O[C@@H](C)C(F)(F)F)c3c(Nc4c(F)cccc4Cl)nn(C)c3c2F)c1=O`: the IC50 was 2 nM in assay [1] and 0.7 nM in the assay with MOLM-13.

The values above are taken from ChEMBL document CHEMBL5131533, “Indazole and Benzoisoxazole Compounds as Dihydroorotate Dehydrogenase Inhibitors for Treating Acute Myelogenous Leukemia” (ACS Med Chem Lett, 2022).
